According to patent US20250270198A1, “PYRIDONE COMPOUNDS AS TRPA1 INHIBITORS” (D. E. Shaw Research, LLC, priority 2022, published 2025):

Target: human TRPA1 channel (Homo sapiens (Human), UniProt O75762)
Assay: TRPA1 inhibitor activity, automated patch clamp (SyncroPatch)
Assay type: cell-based
Conditions: CHO cells inducibly expressing human TRPA1, currents elicited by carvacrol (300 μM), holding potential −60 mV
Procedure: This assay was used to evaluate the disclosed compounds' inhibition activities against the human TRPA1 channel.
CHO cells inducibly expressing human TRPA1 were grown in DMEM containing 10% heat-inactivated FBS, 1 mM Sodium Pyruvate, 2 mM L-Glutamine, Zeocin (100 μg/ml) and Blasticidin (10 μg/ml). Expression was induced by addition of Doxycycline (1 μg/ml) 24 hours before experiments. Cells used for electrophysiology were plated in plastic culture flasks and grown at 37° C. in a 5% CO2-humidified tissue culture incubator per ChanPharm SOP. Stocks were maintained in cryogenic storage.
The cells were bathed in an extracellular solution containing 80 mM NaCl, 60 mM NMDG, 4 mM KCl, 2 mM CaCl2), 6 mM MgCl2, 5 mM Glucose. 10 mM HEPES, 3 mM HEDTA; pH adjusted to 7.4 with NaOH; 305-310 mOsm. All compounds were dissolved in DMSO at 30 mM. The internal solution contained 10 mM CsCl, 110 mM CsF, 10 mM NaCl, 10 mM EGTA, 10 mM HEPES, 4 mM MgATP, 0.25 mM NaGTP, 4 mM BAPTA; pH adjusted to 7.2 with CsOH; 285-290 mOsm. Compound stock solutions were freshly diluted with external solution to concentrations of 3 nM, 10 nM 30 nM, 100 nM, 300 nM, 1 μM, 3 μM, 10 μM, and 30 μM. The highest content of DMSO (0.1%) was present at 30 μM.
All experiments were performed at room temperature. Each cell acted as its own control. In preparation for a current recording session, intracellular solution (see above) was loaded into the intracellular compartments of the automated patch clamp platform SyncroPatch (Nanion) chip and the cell suspension was pipetted into the extracellular compartments. After establishment of a whole-cell configuration, membrane current recordings and compound application were enabled by means of the SyncroPatch. TRPA1 currents were elicited by application of carvacrol (300 μM) at a constant holding potential of −60 mV (see Table A below).
To determine IC50 values, AUC and peak values, obtained in the presence of a given compound concentration, were normalized to control values in absence of compound. Using DataControl384 (Nanion's proprietary software), IC50 values were derived by fitting the normalized data to the Hill equation.

Chain of human TRPA1 channel (O75762 whole entry): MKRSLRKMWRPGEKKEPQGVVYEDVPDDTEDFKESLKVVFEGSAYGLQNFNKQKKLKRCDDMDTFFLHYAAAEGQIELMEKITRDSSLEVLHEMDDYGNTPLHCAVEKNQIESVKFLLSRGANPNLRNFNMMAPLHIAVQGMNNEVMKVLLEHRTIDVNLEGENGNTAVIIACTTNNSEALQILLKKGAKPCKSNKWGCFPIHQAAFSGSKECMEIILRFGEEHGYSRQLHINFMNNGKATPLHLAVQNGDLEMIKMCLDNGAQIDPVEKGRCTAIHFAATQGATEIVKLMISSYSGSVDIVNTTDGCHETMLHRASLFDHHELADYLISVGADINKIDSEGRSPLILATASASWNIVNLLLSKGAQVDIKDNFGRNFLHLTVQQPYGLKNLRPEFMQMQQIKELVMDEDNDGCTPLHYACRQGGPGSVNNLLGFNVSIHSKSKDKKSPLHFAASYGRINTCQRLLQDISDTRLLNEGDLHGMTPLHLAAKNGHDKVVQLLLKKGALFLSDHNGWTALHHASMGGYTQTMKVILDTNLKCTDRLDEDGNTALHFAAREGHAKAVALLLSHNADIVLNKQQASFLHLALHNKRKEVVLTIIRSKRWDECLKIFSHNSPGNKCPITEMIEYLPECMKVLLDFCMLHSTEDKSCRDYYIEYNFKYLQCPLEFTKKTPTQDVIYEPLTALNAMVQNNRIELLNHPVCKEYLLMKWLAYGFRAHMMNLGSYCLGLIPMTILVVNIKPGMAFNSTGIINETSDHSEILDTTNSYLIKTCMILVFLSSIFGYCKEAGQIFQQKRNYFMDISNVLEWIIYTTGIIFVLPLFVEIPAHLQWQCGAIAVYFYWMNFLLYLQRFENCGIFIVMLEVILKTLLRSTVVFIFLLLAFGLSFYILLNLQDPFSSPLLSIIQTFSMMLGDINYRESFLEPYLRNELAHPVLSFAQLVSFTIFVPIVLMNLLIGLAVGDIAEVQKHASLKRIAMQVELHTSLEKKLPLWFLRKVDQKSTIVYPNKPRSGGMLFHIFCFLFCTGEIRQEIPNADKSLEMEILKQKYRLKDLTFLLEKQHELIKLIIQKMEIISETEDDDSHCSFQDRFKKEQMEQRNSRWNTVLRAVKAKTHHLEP

SMILES | IC50 (Table 4) [nM] | IC50 (Table 5) [nM]
Cc1cccn(Cc2nc(CCc3ccc(Cl)cc3)no2)c1=O [Compound 1, 1-((3-(4-chlorophenethyl)-1,2,4-oxadiazol-5-yl)methyl)-3-methylpyridin-2(1H)-one] | < 10000 | 
Cc1cc(C#N)cn(Cc2nc(CCc3ccc(Cl)cc3)no2)c1=O [Compound 2, 1-((3-(4-chlorophenethyl)-1,2,4-oxadiazol-5-yl)methyl)-5-methyl-6-oxo-1,6-dihydropyridine-3-carbonitrile] | < 1000 | 
N#Cc1cc(Br)c(=O)n(Cc2nc(CCc3ccc(Cl)cc3)no2)c1 [Compound 3, 5-bromo-1-((3-(4-chlorophenethyl)-1,2,4-oxadiazol-5-yl)methyl)-6-oxo-1,6-dihydropyridine-3-carbonitrile] | < 1000 | 
Cc1cc(Cl)cn(Cc2nc(CCc3ccc(Cl)cc3)no2)c1=O [Compound 5, 5-chloro-1-((3-(4-chlorophenethyl)-1,2,4-oxadiazol-5-yl)methyl)-3-methylpyridin-2(1H)-one] | < 3000 | 
O=c1c(C(F)(F)F)cccn1Cc1nc(CCc2ccc(Cl)cc2)no1 [Compound 7, 1-((3-(4-chlorophenethyl)-1,2,4-oxadiazol-5-yl)methyl)-3-(trifluoromethyl)pyridin-2(1H)-one] | < 10000 | 
CNC(=O)c1cc(C)c(=O)n(Cc2nc(CCc3ccc(Cl)cc3)no2)c1 [Compound 9, 1-((3-(4-chlorophenethyl)-1,2,4-oxadiazol-5-yl)methyl)-N,5-dimethyl-6-oxo-1,6-dihydropyridine-3-carboxamide] | < 1000 | 
COC(=O)c1cc(C)c(=O)n(Cc2nc(CCc3ccc(Cl)cc3)no2)c1 [Compound 10, methyl 1-((3-(4-chlorophenethyl)-1,2,4-oxadiazol-5-yl)methyl)-5-methyl-6-oxo-1,6-dihydropyridine-3-carboxylate] | < 3000 | 
Cc1c(CO)ccn(Cc2nc(CCc3ccc(Cl)cc3)no2)c1=O [Compound 11, 1-((3-(4-chlorophenethyl)-1,2,4-oxadiazol-5-yl)methyl)-4-(hydroxymethyl)-3-methylpyridin-2(1H)-one] | < 3000 | 
Cc1c(Br)ccn(Cc2nc(CCc3ccc(Cl)cc3)no2)c1=O [Compound 12, 4-bromo-1-((3-(4-chlorophenethyl)-1,2,4-oxadiazol-5-yl)methyl)-3-methylpyridin-2(1H)-one] | < 3000 | 
C=Cc1ccn(Cc2nc(CCc3ccc(Cl)cc3)no2)c(=O)c1C [Compound 13, 1-((3-(4-chlorophenethyl)-1,2,4-oxadiazol-5-yl)methyl)-3-methyl-4-vinylpyridin-2(1H)-one] | < 3000 | 
Cc1c(-c2cn[nH]c2)ccn(Cc2nc(CCc3ccc(Cl)cc3)no2)c1=O [Compound 15, 1-((3-(4-chlorophenethyl)-1,2,4-oxadiazol-5-yl)methyl)-3-methyl-4-(1H-pyrazol-4-yl)pyridin-2(1H)-one] | < 3000 | 
Cc1cc(CO)cn(Cc2nc(CCc3ccc(Cl)cc3)no2)c1=O [Compound 16, 1-((3-(4-chlorophenethyl)-1,2,4-oxadiazol-5-yl)methyl)-5-(hydroxymethyl)-3-methylpyridin-2(1H)-one] | < 3000 | 
Cc1cc(CC#N)cn(Cc2nc(CCc3ccc(Cl)cc3)no2)c1=O [Compound 19, 2-(1-((3-(4-chlorophenethyl)-1,2,4-oxadiazol-5-yl)methyl)-5-methyl-6-oxo-1,6-dihydropyridin-3-yl)acetonitrile] | < 1000 | 
Cc1cc(CC(N)=O)cn(Cc2nc(CCc3ccc(Cl)cc3)no2)c1=O [Compound 20, 2-(1-((3-(4-chlorophenethyl)-1,2,4-oxadiazol-5-yl)methyl)-5-methyl-6-oxo-1,6-dihydropyridin-3-yl)acetamide] | < 10000 | 
O=c1c(Cl)nc(Br)cn1Cc1nc(C[C@H](O)c2ccc(Cl)cc2)no1 [Compound 21, (S)-5-bromo-3-chloro-1-((3-(2-(4-chlorophenyl)-2-hydroxyethyl)-1,2,4-oxadiazol-5-yl)methyl)pyrazin-2(1H)-one] | < 300 | 
Cc1nc(C)c(=O)n(Cc2nc(CCc3ccc(Cl)cc3)no2)c1C [Compound 23, 1-((3-(4-chlorophenethyl)-1,2,4-oxadiazol-5-yl)methyl)-3,5,6-trimethylpyrazin-2(1H)-one] | < 1000 | 
Cc1nc(Cl)cn(Cc2nc(CCc3ccc(Cl)cc3)no2)c1=O [Compound 24, 5-chloro-1-((3-(4-chlorophenethyl)-1,2,4-oxadiazol-5-yl)methyl)-3-methylpyrazin-2(1H)-one] | < 1000 | 
Cc1nccn(Cc2nc(CCc3ccc(Cl)cc3)no2)c1=O [Compound 25, 1-((3-(4-chlorophenethyl)-1,2,4-oxadiazol-5-yl)methyl)-3-methylpyrazin-2(1H)-one] | < 3000 | 
Nc1c(Cl)c(F)n(Cc2nc(C[C@H](O)c3ccc(Cl)cc3)no2)c(=O)c1Cl [Compound 28, (S)-4-amino-3,5-dichloro-1-((3-(2-(4-chlorophenyl)-2-hydroxyethyl)-1,2,4-oxadiazol-5-yl)methyl)-6-fluoropyridin-2(1H)-one] | < 1000 | 
Cc1ncc(C)n(Cc2nc(C[C@H](O)c3ccc(Cl)cc3)no2)c1=O [Compound 31, (S)-1-((3-(2-(4-chlorophenyl)-2-hydroxyethyl)-1,2,4-oxadiazol-5-yl)methyl)-3,6-dimethylpyrazin-2(1H)-one] | < 1000 | 
Cc1cn(Cc2nc(C[C@H](O)c3ccc(Cl)cc3)no2)c(=O)c(C)n1 [Compound 32, (S)-1-((3-(2-(4-chlorophenyl)-2-hydroxyethyl)-1,2,4-oxadiazol-5-yl)methyl)-3,5-dimethylpyrazin-2(1H)-one] | < 1000 | 
Cc1c(N)ncn(Cc2nc(C[C@H](O)c3ccc(Cl)cc3)no2)c1=O [Compound 33, (S)-6-amino-3-((3-(2-(4-chlorophenyl)-2-hydroxyethyl)-1,2,4-oxadiazol-5-yl)methyl)-5-methylpyrimidin-4(3H)-one] | < 1000 | 
Cc1ccc(Cl)c(=O)n1Cc1nc(C[C@H](O)c2ccc(Cl)cc2)no1 [Compound 34, (S)-3-chloro-1-((3-(2-(4-chlorophenyl)-2-hydroxyethyl)-1,2,4-oxadiazol-5-yl)methyl)-6-methylpyridin-2(1H)-one] | < 1000 | 
NC(=O)c1ncn(Cc2nc(C[C@H](O)c3ccc(Cl)cc3)no2)c(=O)c1Cl [Compound 62, (S)-5-chloro-1-((3-(2-(4-chlorophenyl)-2-hydroxyethyl)-1,2,4-oxadiazol-5-yl)methyl)-6-oxo-1,6-dihydropyrimidine-4-carboxamide] |  | < 1000
O=c1c(Cl)c(Cl)ncn1Cc1nc(C[C@H](O)c2ccc(Cl)cc2)no1 [Compound 64, (S)-5,6-dichloro-3-((3-(2-(4-chlorophenyl)-2-hydroxyethyl)-1,2,4-oxadiazol-5-yl)methyl)pyrimidin-4(3H)-one] |  | < 100
Cc1ncn(Cc2nc(C[C@H](O)c3ccc(Cl)cc3)no2)c(=O)c1C [Compound 68, (S)-3-((3-(2-(4-chlorophenyl)-2-hydroxyethyl)-1,2,4-oxadiazol-5-yl)methyl)-5,6-dimethylpyrimidin-4(3H)-one] |  | < 300
Cc1ncc(Cl)c(=O)n1Cc1nc(C[C@H](O)c2ccc(Cl)cc2)no1 [Compound 69, (S)-5-chloro-3-((3-(2-(4-chlorophenyl)-2-hydroxyethyl)-1,2,4-oxadiazol-5-yl)methyl)-2-methylpyrimidin-4(3H)-one] |  | < 1000
Nc1ncn(Cc2nc(C[C@H](O)c3ccc(Cl)cc3)no2)c(=O)c1Cl [Compound 72, (S)-6-amino-5-chloro-3-((3-(2-(4-chlorophenyl)-2-hydroxyethyl)-1,2,4-oxadiazol-5-yl)methyl)pyrimidin-4(3H)-one] |  | < 300
O=c1c(Cl)c(-c2cn[nH]c2)ccn1Cc1nc(C[C@H](O)c2ccc(Cl)cc2)no1 [Compound 74, (S)-3-chloro-1-((3-(2-(4-chlorophenyl)-2-hydroxyethyl)-1,2,4-oxadiazol-5-yl)methyl)-4-(1H-pyrazol-4-yl)pyridin-2(1H)-one] |  | < 1000
